Active and inactive are the calls of the source. No cut-off for these calls is given here.

Common to all, as to type: functional, organism-based
Assay [1] relates to Mus musculus. The following applies: CD-1, dose 10.0 mg/kg, route ip, time 36.0 hrs.
In assay [2] the test system is SARS-CoV-2. The following applies: Severe acute respiratory syndrome coronavirus 2; MA10; dose 10.0 mg/kg, route ip, time 36.0 hrs.
For assay [3], the system named is Mus musculus. As to conditions: CD-1, dose 10.0 mg/kg, route ip, time 36.0 hrs. This is another data set of the same source.
Assay [4] deals with SARS-CoV-2. In words: Antiviral activity against activity SARS-CoV-2 infected in human A549-ACE2 cells assessed as inhibition of viral replication pretreated with cells for 1 hrs followed by viral infected for 2 hrs and replacement with fresh medium containing compounds and measured 48 hrs post infection. As to conditions: Severe acute respiratory syndrome coronavirus 2, A549-ACE2.

For orientation: IC50 means the midpoint of a concentration-inhibition curve. Consider `CCN(CCN)c1ccc(Nc2cc(NC3CC3)n3ncc(C#N)c3n2)cc1-n1cnnc1`, for which the inhibition entry in the assay with Mus musculus [1] and with Mus musculus [3] was “inactive” each time. Also, the outcome in the assay on SARS-CoV-2 [2] was inactive. Also, the IC50 with SARS-CoV-2 [4] was 390 nM.
